Experimental data taken from a compilation of properties of binary mixtures (doi:10.1016/j.molliq.2016.09.008).

Assay: xn = mol fraction of the nth substance listed
Details: 298.15 K, 101 kPa

## C[N+](=O)[O-] + CC[NH3+].O=[N+]([O-])[O-]
x1 = 1
  electrical conductivity: 0.0031 S/m
  viscosity: 0.637 mPa·s

## CC[NH3+].O=[N+]([O-])[O-] + C[N+](=O)[O-]
x1 = 0.0034
  electrical conductivity: 0.0549 S/m
  viscosity: 0.652 mPa·s
x1 = 0.0062
  electrical conductivity: 0.0721 S/m
  viscosity: 0.662 mPa·s
x1 = 0.0112
  electrical conductivity: 0.0945 S/m
  viscosity: 0.679 mPa·s
x1 = 0.0129
  electrical conductivity: 0.1 S/m
  viscosity: 0.683 mPa·s
x2 = 0.0498
  electrical conductivity: 2.34 S/m
  viscosity: 34.1 mPa·s
x2 = 0.1048
  electrical conductivity: 2.4 S/m
  viscosity: 31.5 mPa·s
x2 = 0.2032
  electrical conductivity: 2.56 S/m
  viscosity: 23.9 mPa·s
x2 = 0.3007
  electrical conductivity: 2.7 S/m
  viscosity: 20.3 mPa·s
x2 = 0.3874
  electrical conductivity: 2.94 S/m
  viscosity: 15.3 mPa·s
x2 = 0.4983
  electrical conductivity: 2.71 S/m
  viscosity: 8.52 mPa·s
